From patent US9969687B2, “Compounds useful as CCR9 modulators” (Norgine B.V., priority 2013, dated 2018)

How the values were obtained:
CCR9 [1] = target: T1, CCR9 (Homo sapiens (Human), UniProt P51686); experiment: FLIPR calcium flux assay using MOLT4 cells, TECK stimulation; assay type: cell-based; settings: MOLT4 cells (human T-cell line)
Description: Biological Activity: FLIPR Assay Using MOLT4 Cells
A calcium flux assay was used to determine the ability of the compounds to interfere with the binding between CCR9 and its chemokine ligand (TECK) in MOLT4 cells (a human T-cell line). MOLT4 cells were seeded (100,000 cells/well) in corning cell culture plates (Cat #3603) in assay buffer (1×HBSS, 20 mM HEPES) containing 2.5 mM Probenecid. The plate was centrifuged at 1200 rpm for 3 minutes and incubated at 37° C./5% CO2 for 2 hours. A 0.3× Fluo-4 NW calcium dye was prepared in assay buffer containing 5 mM Probenecid and stored in the dark. Each well was loaded with 25 μl of 0.3× Fluo-4 NW calcium dye and incubated at 37° C./5% CO2 for 60 minutes and then at room temperature for 30 minutes. A half-log serially diluted concentration response curve was prepared at a 4× concentration for each (10 μM-0.1 nM final assay concentration) and 25 μL of the compound then transferred to the cells (100 μL final volume) for 60 minutes prior to stimulation (30 minutes at 37° C./5% CO2 and 30 minutes at room temperature). […] The increased in intracellular calcium levels was measured with the FLIPR instrument. The potency of the compound as CCR9 antagonist was calculated as an IC50 using GraphPad Prism software (variable slope four parameter). The Ki of the compound was determined from the IC50 values using the following equation. IC50/1+(Agonist (TECK) conc. used in assay/EC50 of agonist (TECK) generated on day of experiment) Ki calculation: […]

CCR9 [2] = target: T1, CCR9; experiment: FLIPR calcium flux assay using hCCR9 over expressed cells (Chem1-hCCR9), TECK stimulation; assay type: cell-based; settings: Chem1-hCCR9 overexpressing cells
Description: Biological Activity: FLIPR Assay Using hCCR9 Over Expressed Cells
A calcium flux assay was used to determine the ability of the compounds to interfere with the binding between CCR9 and its chemokine ligand (TECK) in Chem1-hCCR9 overexpressing cells. hCCR9 overexpressing cells were seeded (25,000 cells/well) into black Poly-D-Lysine coated clear bottom 96-well plates (BD Biosciences, Cat #356640) and incubated overnight at 37° C./5% CO2 in a humidified incubator. Media was aspirated and cells washed twice with 100 μL assay buffer (1×HBSS, 20 mM HEPES) containing 2.5 mM Probenecid. A 0.3× Fluo-4 NW calcium dye was prepared in assay buffer containing 5 mM Probenecid and stored in the dark. Each well was loaded with 100 μL of 0.3× Fluo-4 NW calcium dye and incubated at 37° C./5% CO2 for 60 minutes and then at room temperature for 30 minutes. A half-log serially diluted concentration response curve was prepared at a 3× final assay concentration for each compound (10 μM-0.1 nM final assay concentration) and 50 μL of the compound then transferred to the cells (150 μL final volume) for 60 minutes prior to stimulation (30 minutes at 37° C./5% CO2 and 30 minutes at room temperature). TECK was diluted to 4× its EC80 in assay buffer (containing 0.1% [w/v] bovine serum albumin [BSA]) and 50 μL dispensed through the fluorometric imaging plate reader (FLIPR) instrument to stimulate the cells (200 μL final volume). The increase in intracellular calcium levels was measured with the FLIPR instrument. The potency of the compound as a CCR9 antagonist was calculated as an IC50 using GraphPad Prism software (variable slope four parameter). The Ki of the compound was determined from the IC50 values using the following equation. IC50/1+(Agonist (TECK) conc. used in assay/EC50 of agonist (TECK) generated on day of experiment) Ki calculation: […]

T1 sequence (P51686 whole entry): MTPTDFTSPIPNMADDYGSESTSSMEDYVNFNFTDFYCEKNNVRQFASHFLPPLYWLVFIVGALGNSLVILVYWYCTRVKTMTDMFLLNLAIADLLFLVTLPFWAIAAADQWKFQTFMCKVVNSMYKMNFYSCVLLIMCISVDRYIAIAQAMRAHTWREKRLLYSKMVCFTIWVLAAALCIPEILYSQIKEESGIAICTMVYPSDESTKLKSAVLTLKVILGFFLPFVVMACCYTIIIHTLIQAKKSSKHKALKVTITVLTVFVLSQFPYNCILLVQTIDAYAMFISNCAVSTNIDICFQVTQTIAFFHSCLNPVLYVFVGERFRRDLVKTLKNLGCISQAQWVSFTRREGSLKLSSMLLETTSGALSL

Structure (SMILES)	Ki (CCR9 [1]) [nM]	Ki (CCR9 [2]) [nM]
CC(C)(C)c1ccc(S(=O)(=O)Nc2cccc3c2C(=O)N(c2cccnc2)C3=O)cc1 [Compound 1, 4-tert-Butylphenylsulfonic acid (1,3-dioxo-2-(pyridin-3-yl)-2,3-dihydro-1H-isoindol-4-yl)-amide]	479	1240
CC(C)(C)c1ccc(S(=O)(=O)Nc2ccc(Cl)c3c2C(=O)N(c2cccnc2)C3=O)cc1 [Compound 43, 4-(tert-butyl)-N-(7-chloro-1,3-dioxo-2-(pyridin-3-yl)isoindolin-4-yl)benzenesulfonamide]	25	42
CC(C)(C)c1ccc(S(=O)(=O)Nc2ccc(Cl)c3c2C(=O)N(c2ccc[n+]([O-])c2)C3=O)cc1 [Compound 44, 3-(4-(4-(tert-butyl)phenylsulfonamido)-7-chloro-1,3-dioxoisoindolin-2-yl)pyridine 1-oxide]	16	179
O=C1c2c(Cl)ccc(NS(=O)(=O)c3ccc(C(F)(F)F)cc3)c2C(=O)N1c1cccnc1 [Compound 47]	34	309
CC(C)(C)c1ccc(S(=O)(=O)Nc2ccc(Cl)c3c2C(=O)N(Cc2ccc[n+]([O-])c2)C3=O)cc1 [Compound 65, 3-((4-(4-(tert-butyl)phenylsulfonamido)-7-chloro-1,3-dioxoisoindolin-2-yl)methyl)pyridine 1-oxide]	13	74
COc1cncc(N2C(=O)c3c(Cl)ccc(NS(=O)(=O)c4ccc(C(C)(C)C)cc4)c3C2=O)c1 [Compound 90, 4-(tert-butyl)-N-(7-chloro-2-(5-methoxypyridin-3-yl)-1,3-dioxoisoindolin-4-yl)benzenesulfonamide]	22	174
COc1ccncc1N1C(=O)c2c(Cl)ccc(NS(=O)(=O)c3ccc(C(C)(C)C)cc3)c2C1=O [Compound 119]	2	35
CC(C)(C)c1ccc(S(=O)(=O)Nc2ccc(Cl)c3c2C(=O)N(c2cccc(C#N)c2)C3=O)cc1 [Compound 120, 4-(tert-butyl)-N-(7-chloro-2-(3-cyanophenyl)-1,3-dioxoisoindolin-4-yl)benzenesulfonamide]	74	90
COc1cccc(N2C(=O)c3c(Cl)ccc(NS(=O)(=O)c4ccc(C(C)(C)C)cc4)c3C2=O)c1 [Compound 138]	83	138
Cn1ccc(N2C(=O)c3c(Cl)ccc(NS(=O)(=O)c4ccc(C(C)(C)C)cc4)c3C2=O)n1 [Compound 145]	129	73
O=C1c2c(Cl)ccc(NS(=O)(=O)c3ccc(C(F)(F)F)cc3)c2C(=O)N1c1cn[nH]c1 [Compound 149]	53	397
CCOc1cccc(N2C(=O)c3c(Cl)ccc(NS(=O)(=O)c4ccc(C(C)(C)C)cc4)c3C2=O)[n+]1[O-] [Compound 210]	44	
Cc1ccc(CN2C(=O)c3c(Cl)ccc(NS(=O)(=O)c4ccc(C(C)(C)C)cc4)c3C2=O)cn1 [Compound 215]	85	
Cc1cc(C)nc(N2C(=O)c3c(Cl)ccc(NS(=O)(=O)c4ccc(C(C)(C)C)cc4)c3C2=O)n1 [Compound 240]	84	
Cc1ccc(CN2C(=O)c3c(Cl)ccc(NS(=O)(=O)c4ccc(C(C)(C)C)cc4)c3C2=O)c(C)n1 [Compound 248]	70	
COc1nc(C)ccc1CN1C(=O)c2c(Cl)ccc(NS(=O)(=O)c3ccc(C(C)(C)C)cc3)c2C1=O [Compound 253]	41	
COc1cc(CN2C(=O)c3c(Cl)ccc(NS(=O)(=O)c4ccc(C(C)(C)C)cc4)c3C2=O)ccn1 [Compound 273]	108	
CC(C)(C)c1ccc(S(=O)(=O)Nc2ccc(C#N)c3c2C(=O)N(Cc2ccc[n+]([O-])c2)C3=O)cc1 [Compound 280]	37	

Second part, the compound after the results:

Ki (CCR9 [1]) [nM]	Ki (CCR9 [2]) [nM]	Structure (SMILES)
	5630	O=C1c2cccc(NS(=O)(=O)c3ccc(C(F)(F)F)cc3)c2C(=O)N1c1cccnc1 [Compound 6]
52	314	O=C1c2c(Cl)ccc(NS(=O)(=O)c3ccc(OC(F)(F)F)cc3)c2C(=O)N1c1cccnc1 [Compound 45]
22	27	CC(C)(C)c1ccc(S(=O)(=O)Nc2ccc(Cl)c3c2C(=O)N(Cc2cccnc2)C3=O)cc1 [Compound 64, 4-(tert-butyl)-N-(7-chloro-1,3-dioxo-2-(pyridin-3-ylmethyl)isoindolin-4-yl)benzenesulfonamide]
115	269	O=C1c2c(Cl)ccc(NS(=O)(=O)c3ccc(C(F)(F)F)cc3)c2C(=O)N1Cc1cccnc1 [Compound 66]
19	98	CC(C)(C)c1ccc(S(=O)(=O)Nc2ccc(C#N)c3c2C(=O)N(Cc2cccnc2)C3=O)cc1 [Compound 82, 4-(tert-butyl)-N-(7-cyano-1,3-dioxo-2-(pyridin-3-ylmethyl)isoindolin-4-yl)benzenesulfonamide]
128	242	CCOc1cncc(N2C(=O)c3c(Cl)ccc(NS(=O)(=O)c4ccc(C(C)(C)C)cc4)c3C2=O)c1 [Compound 103]
30	239	Cc1cncc(N2C(=O)c3c(Cl)ccc(NS(=O)(=O)c4ccc(C(C)(C)C)cc4)c3C2=O)c1 [Compound 104, 4-(tert-butyl)-N-(7-chloro-2-(5-methylpyridin-3-yl)-1,3-dioxoisoindolin-4-yl)benzenesulfonamide]
192	337	N#Cc1cccc(N2C(=O)c3c(Cl)ccc(NS(=O)(=O)c4ccc(C(F)(F)F)cc4)c3C2=O)c1 [Compound 121]
158	343	CC(C)(C)c1ccc(S(=O)(=O)Nc2ccc(Cl)c3c2C(=O)N(Cc2cccc(C#N)c2)C3=O)cc1 [Compound 126, 4-(tert-butyl)-N-(7-chloro-2-(3-cyanobenzyl)-1,3-dioxoisoindolin-4-yl)benzenesulfonamide]
244	447	N#Cc1cccc(CN2C(=O)c3c(Cl)ccc(NS(=O)(=O)c4ccc(C(F)(F)F)cc4)c3C2=O)c1 [Compound 128]
220	158	N#Cc1cccc(CN2C(=O)c3c(Cl)ccc(NS(=O)(=O)c4ccc(F)c(C(F)(F)F)c4)c3C2=O)c1 [Compound 133]
3	23	Cn1nccc1N1C(=O)c2c(Cl)ccc(NS(=O)(=O)c3ccc(C(C)(C)C)cc3)c2C1=O [Compound 144]
36	94	CC(C)(C)c1ccc(S(=O)(=O)Nc2ccc(Cl)c3c2C(=O)N(c2cn[nH]c2)C3=O)cc1 [Compound 148, 4-(tert-butyl)-N-(7-chloro-1,3-dioxo-2-(1H-pyrazol-4-yl)isoindolin-4-yl)benzenesulfonamide]
7	43	Cn1cnc(N2C(=O)c3c(Cl)ccc(NS(=O)(=O)c4ccc(C(C)(C)C)cc4)c3C2=O)c1 [Compound 153, 4-(tert-butyl)-N-(7-chloro-2-(1-methyl-1H-imidazol-4-yl)-1,3-dioxoisoindolin-4-yl)benzenesulfonamide]
125		CCOc1nc(C)ccc1CN1C(=O)c2c(Cl)ccc(NS(=O)(=O)c3ccc(C(C)(C)C)cc3)c2C1=O [Compound 246]
33		Cc1ccc(CN2C(=O)c3c(Cl)ccc(NS(=O)(=O)c4ccc(C(C)(C)C)cc4)c3C2=O)c(C)[n+]1[O-] [Compound 252]
41		COc1ccc(N2C(=O)c3c(Cl)ccc(NS(=O)(=O)c4ccc(C(C)(C)C)cc4)c3C2=O)[n+]([O-])c1C [Compound 265]
54		COc1cnc(N2C(=O)c3c(Cl)ccc(NS(=O)(=O)c4ccc(C(C)(C)C)cc4)c3C2=O)cc1C [Compound 268]
28		CC(C)(C)c1ccc(S(=O)(=O)Nc2ccc(C#N)c3c2C(=O)N(C2CCOCC2)C3=O)cc1 [Compound 277]
104		Cn1cc(N2C(=O)c3c(Cl)ccc(NS(=O)(=O)c4ccc(C(C)(C)C)cc4)c3C2=O)c(C(=O)O)n1 [Compound 289]
